The values below come from PubChem BioAssay AID280 (DTP/NCI, 2004).

The subject of the assay is nude mice, LOX melanoma ip, survival T/C. As to the kind of experiment: NCI In Vivo Anticancer Drug Screen. Data for tumor model Human Amelanotic Melanoma (LOX) (intraperitoneal) in NU/NU BALB/C (nude) mice. The conditions noted are these: endpoint: median survival time, higher = longer survival. As for the experimental part: The antitumor activity of compounds was measured in mice bearing transplantable tumors. Survival or tumor size were measured and the results are expressed as the measurement made in the treated group (T) divided by the measurement made in the vehicle treated control group (C). The tumor model used in this assay is Human Amelanotic Melanoma (LOX) (intraperitoneal) in NU/NU BALB/C (nude) mice

[1] abbreviates: dose: 5.0 mg/kg/injection, schedule: Q04DX003 (ip), vehicle: Klucel (hydroxypropylcellulose) (HPC).
Setting [2] is: dose: 10.0 mg/kg/injection, schedule: Q04DX003 (ip), vehicle: Klucel (hydroxypropylcellulose) (HPC).
Where [3] appears, read: dose: 75.0 mg/kg/injection, schedule: Q04DX003 (ip), vehicle: saline with Tween-80.
Where [4] appears, read: dose: 300.0 mg/kg/injection, schedule: Q04DX003 (ip), vehicle: saline with Tween-80.
Where [5] appears, read: dose: 75.0 mg/kg/injection, schedule: Q04DX003 (ip), vehicle: saline.
The mark [6] stands for this setting: dose: 150.0 mg/kg/injection, schedule: Q04DX003 (ip), vehicle: saline.
Setting [7] is: dose: 300.0 mg/kg/injection, schedule: Q04DX003 (ip), vehicle: saline.
Where [8] appears, read: dose: 600.0 mg/kg/injection, schedule: Q04DX003 (ip), vehicle: saline.
Where [9] appears, read: dose: 100.0 mg/kg/injection, schedule: Q04DX003 (ip), vehicle: Klucel (hydroxypropylcellulose) (HPC).

Where “and” joins values, the source holds several entries; their conditions need not be identical. Identical values can stand only once. Inconclusive results and toxic doses are left out.

Consider `COc1c(O)cc2c(c1OC)-c1ccc(SC)c(=O)cc1C(NC(C)=O)CC2` (stereo not given), for which the T/C by setting is: (dose: 4.0 mg/kg/injection, schedule: Q04DX003 (ip), vehicle: other) 114 % of control; under setting [1], 151 % of control and 252 % of control; (dose: 5.9 mg/kg/injection, schedule: Q04DX003 (ip), vehicle: other) 111 % of control and 116 % of control; (dose: 8.9 mg/kg/injection, schedule: Q04DX003 (ip), vehicle: other) 117 % of control; under setting [2], 151 % of control and 305 % of control; (dose: 20.0 mg/kg/injection, schedule: Q04DX003 (ip), vehicle: other) 151 % of control and 156 % of control.
Consider `N[C@@H](Cc1ccc(N(CCCl)CCCl)cc1)C(=O)O`, for which the T/C runs as follows: (dose: 1.0 mg/kg/injection, schedule: Q01DX005 (ip), vehicle: water) 155 % of control; (dose: 1.0 mg/kg/injection, schedule: Q01DX015 (ip), vehicle: water) 166 % of control; (dose: 2.0 mg/kg/injection, schedule: Q01DX005 (ip), vehicle: water) 258 % of control; (dose: 2.0 mg/kg/injection, schedule: Q01DX015 (ip), vehicle: water) 218 % of control; (dose: 2.5 mg/kg/injection, schedule: Q01DX001 (ip), vehicle: water) 171 % of control; (dose: 2.5 mg/kg/injection, schedule: Q04DX003 (ip), vehicle: water) 162 % of control. In addition, the T/C reads like this: (dose: 4.0 mg/kg/injection, schedule: Q01DX005 (ip), vehicle: water) 344 % of control; (dose: 4.0 mg/kg/injection, schedule: Q01DX015 (ip), vehicle: water) 344 % of control; (dose: 5.0 mg/kg/injection, schedule: Q01DX001 (ip), vehicle: water) 188 % of control; (dose: 5.0 mg/kg/injection, schedule: Q04DX003 (ip), vehicle: water) 241 % of control; (dose: 6.0 mg/kg/injection, schedule: Q04DX003 (ip), vehicle: saline) 111 % of control and 203 % of control; (dose: 8.0 mg/kg/injection, schedule: Q01DX005 (ip), vehicle: water) 344 % of control. The T/C is, setting by setting: (dose: 9.0 mg/kg/injection, schedule: Q04DX003 (ip), vehicle: saline) 122 % of control and 203 % of control; (dose: 10.0 mg/kg/injection, schedule: Q01DX001 (ip), vehicle: water) 344 % of control; (dose: 10.0 mg/kg/injection, schedule: Q04DX003 (ip), vehicle: water) 344 % of control; (dose: 20.0 mg/kg/injection, schedule: Q01DX001 (ip), vehicle: water) 344 % of control; (dose: 20.0 mg/kg/injection, schedule: Q04DX003 (ip), vehicle: water) 97 % of control.
On to `C=C(C)/C([O-])=N/[N+](C)(C)CC(O)CCCCCCCCCCCC` (stereo not given), for which the T/C by setting is: (dose: 2.5 mg/kg/injection, schedule: Q04DX003 (ip), vehicle: Klucel (hydroxypropylcellulose) (HPC)) 88 % of control; under setting [1], 91 % of control; under setting [2], 91 % of control and 98 % of control; (dose: 20.0 mg/kg/injection, schedule: Q04DX003 (ip), vehicle: Klucel (hydroxypropylcellulose) (HPC)) 101 % of control; (dose: 40.0 mg/kg/injection, schedule: Q04DX003 (ip), vehicle: Klucel (hydroxypropylcellulose) (HPC)) 102 % of control and 105 % of control; (dose: 80.0 mg/kg/injection, schedule: Q04DX003 (ip), vehicle: Klucel (hydroxypropylcellulose) (HPC)) 105 % of control. The T/C (dose: 160.0 mg/kg/injection, schedule: Q04DX003 (ip), vehicle: Klucel (hydroxypropylcellulose) (HPC)) was 87 % of control.
For `c1ccc(OCC2CO2)c(OCC2CO2)c1` (stereo not given), the T/C (dose: 37.5 mg/kg/injection, schedule: Q04DX003 (ip), vehicle: saline with Tween-80) was 118 % of control; the T/C under setting [3] was 109 % of control; the T/C under setting [4] is 265 % of control.
For the compound `OCC(O)C(O)C(O)C(O)CO` (stereo not given), the T/C reads like this: under setting [5], 97 % of control; under setting [6], 102 % of control; under setting [7], 97 % of control; under setting [8], 106 % of control; (dose: 1200.0 mg/kg/injection, schedule: Q04DX003 (ip), vehicle: saline) 104 % of control.
Regarding `COC(=O)C1(F)C(=O)NC(=O)NC1OC` (stereo not given), the T/C reads like this: (dose: 50.0 mg/kg/injection, schedule: Q04DX003 (ip), vehicle: Klucel (hydroxypropylcellulose) (HPC)) 110 % of control; under setting [9], 98 % of control; (dose: 200.0 mg/kg/injection, schedule: Q04DX003 (ip), vehicle: Klucel (hydroxypropylcellulose) (HPC)) 92 % of control; (dose: 400.0 mg/kg/injection, schedule: Q04DX003 (ip), vehicle: Klucel (hydroxypropylcellulose) (HPC)) 104 % of control; (dose: 800.0 mg/kg/injection, schedule: Q04DX003 (ip), vehicle: Klucel (hydroxypropylcellulose) (HPC)) 94 % of control.
Take `O=[N+]([O-])c1ccc(N(CCO)CCO)c2c1no[n+]2[O-]`: the T/C is, setting by setting: (dose: 6.25 mg/kg/injection, schedule: Q04DX003 (ip), vehicle: saline with Tween-80) 99 % of control; (dose: 12.5 mg/kg/injection, schedule: Q04DX003 (ip), vehicle: saline with Tween-80) 106 % of control; (dose: 25.0 mg/kg/injection, schedule: Q04DX003 (ip), vehicle: saline with Tween-80) 111 % of control; (dose: 50.0 mg/kg/injection, schedule: Q04DX003 (ip), vehicle: saline with Tween-80) 93 % of control; (dose: 100.0 mg/kg/injection, schedule: Q04DX003 (ip), vehicle: saline with Tween-80) 115 % of control.
For the compound `NC(Cc1ccccc1)C(=O)OCN1C(=O)C2C3C=CC(C2C1=O)C1C2C(=O)N(COC(=O)C(N)Cc4ccccc4)C(=O)C2C31` (stereo not given), the T/C runs as follows: (dose: 25.0 mg/kg/injection, schedule: Q04DX003 (ip), vehicle: water) 105 % of control; (dose: 50.0 mg/kg/injection, schedule: Q04DX003 (ip), vehicle: water) 109 % of control; (dose: 100.0 mg/kg/injection, schedule: Q04DX003 (ip), vehicle: water) 107 % of control; (dose: 200.0 mg/kg/injection, schedule: Q04DX003 (ip), vehicle: water) 116 % of control.
On to `CN=C(N)N/N=C(\C)c1ccc2oc3ccc(/C(C)=N/NC(N)=NC)cc3c2c1`, for which the T/C reads like this: (dose: 18.0 mg/kg/injection, schedule: Q04DX003 (ip), vehicle: Klucel (hydroxypropylcellulose) (HPC)) 102 % of control and 123 % of control; (dose: 30.0 mg/kg/injection, schedule: Q04DX003 (ip), vehicle: Klucel (hydroxypropylcellulose) (HPC)) 117 % of control and 99 % of control; (dose: 83.0 mg/kg/injection, schedule: Q04DX003 (ip), vehicle: Klucel (hydroxypropylcellulose) (HPC)) 116 % of control; (dose: 83.33 mg/kg/injection, schedule: Q04DX003 (ip), vehicle: Klucel (hydroxypropylcellulose) (HPC)) 88 % of control; under setting [9], 108 % of control.
As to `O=C(Oc1ccccc1)c1cc(O)c(O)c(O)c1`, the T/C runs as follows: (dose: 37.5 mg/kg/injection, schedule: Q04DX003 (ip), vehicle: saline) 157 % of control; under setting [5], 99 % of control; under setting [6], 152 % of control; under setting [7], 88 % of control; under setting [8], 94 % of control.
As for `N=C(N)c1ccc(N=Nc2c(O)ccc3cc(O)ccc23)cc1`, the T/C (dose: 18.75 mg/kg/injection, schedule: Q04DX003 (ip), vehicle: Klucel (hydroxypropylcellulose) (HPC)) is 92 % of control; the T/C (dose: 37.5 mg/kg/injection, schedule: Q04DX003 (ip), vehicle: Klucel (hydroxypropylcellulose) (HPC)) was 102 % of control; the T/C (dose: 300.0 mg/kg/injection, schedule: Q04DX003 (ip), vehicle: Klucel (hydroxypropylcellulose) (HPC)) was 95 % of control.
For the compound `CC1C(c2ccccc2)OC(N2CCOCC2)C(C)(C)CN1C` (stereo not given), the T/C runs as follows: under setting [3], 105 % of control; (dose: 150.0 mg/kg/injection, schedule: Q04DX003 (ip), vehicle: saline with Tween-80) 93 % of control; under setting [4], 90 % of control.
On to `Cc1cc(N/N=C/c2ccccn2)nc2ccccc12`, for which the T/C (dose: 75.0 mg/kg/injection, schedule: Q04DX003 (ip), vehicle: Klucel (hydroxypropylcellulose) (HPC)) was 107 % of control and the T/C (dose: 150.0 mg/kg/injection, schedule: Q04DX003 (ip), vehicle: Klucel (hydroxypropylcellulose) (HPC)) was 107 % of control.
